Experimental data: ChEMBL document CHEMBL1150118, “Agonodepsides a and B: two new depsides from a filamentous fungus F7524” (J Nat Prod, 2002)
pIC50: −log10 of the molar value. Calls of active or inactive are those of the source. No cut-off for these calls is given here.

Experiments:
[1] = molecular target: T1, Enoyl-[acyl-carrier-protein] reductase [NADH] (Mycobacterium tuberculosis) (UniProt P9WGR1); experiment: inhibition of Mycobacterium tuberculosis InhA at 100 uM after 20 mins by fluorometric assay
T1 sequence (whole entry): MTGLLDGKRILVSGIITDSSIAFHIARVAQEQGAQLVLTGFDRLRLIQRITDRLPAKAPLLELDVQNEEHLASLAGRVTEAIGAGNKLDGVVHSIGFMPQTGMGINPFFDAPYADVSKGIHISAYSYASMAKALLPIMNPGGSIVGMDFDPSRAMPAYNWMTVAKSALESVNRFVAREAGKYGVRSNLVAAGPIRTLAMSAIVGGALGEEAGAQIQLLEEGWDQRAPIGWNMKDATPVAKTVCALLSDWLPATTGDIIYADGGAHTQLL

[2] = molecular target: T2, Enoyl-[acyl-carrier-protein] reductase [NADH] (Mycobacterium tuberculosis, UniProt P9WGR1); experiment: inhibition of Mycobacterium tuberculosis InhA after 20 mins by fluorometric assay
T2 sequence (P9WGR1 whole entry): T1 sequence (whole entry)

Structure (SMILES)	Activity [1]	pIC50 [2]
C/C=C(\C)c1cc(O)c(C)c(O)c1C(=O)Oc1cc(/C(C)=C/C)c(C(=O)O)c(O)c1C	inactive	
C/C=C(\C)c1cc(O)c(C)c(OC(=O)c2c(/C(C)=C/C)cc(O)c(C)c2O)c1 [AGONODEPSIDE A]		4.12
